These results are taken from patent US20030157154A1, “Compositions containing hydroxy aromatic aldehydes and their use in treatments” (priority 2002, published 2003).

For experiment [1], the system named is PGE-2. As to the kind of experiment: IL-1 induced PGE-2 in human skin fibroblasts (ELISA of culture medium). Format: cell-based. The conditions noted are these: Skin fibroblast, IL-1 500 picograms/ml, 24 hours, read-out: percent inhibition of IL-1 induced PGE-2; for inhibition at 1 µM: compound 1 μM; for inhibition at 10 µM: compound 10 μM; for inhibition at 50 µM: compound 50 μM. How it is done: (§1) For this experiment, human skin fibroblasts were seeded into 12 well culture dishes at a density of 80,000 cells/well in tissue culture medium and left overnight to attach to the dish. The next day, medium was removed and replaced with fresh medium containing either 1% ethanol as a diluent control, IL-1 at a concentration of 500 picograms/ml, or IL-1 plus one of the compounds under investigation at a concentration of 1, 10, 50 or 100 μM. Cells were incubated for an additional 24 hours and at this time, the medium was removed and assayed by ELISA for the presence of PGE-2 in the culture medium.
In general terms: An ELISA detects its analyte on a solid surface through an enzyme-linked reagent.

The subject of experiment [2] is PGE-2. As to the kind of experiment: TPA-induced PGE-2 in human skin keratinocytes (ELISA of culture medium). The experiment is classed as cell-based. Conditions: TPA 32 nM. The procedure: as §1
Similar in vitro studies as those described in Example 1 were run using human skin keratinocytes except that the aromatic aldehyde was not added t. The experimental set up was the same as described for Example 1, but replacing IL-1 with tetradecanoyl phorbol acetate (TPA) at a concentration of 32 nM as the agonist. Samples of 3,5-Di-tert-butyl, 4- hydroxybenzaldehyde (DTHB) in concentrations of either 10, 50, or 100 μM were tested. […] However, treatment with DTHB blocked PGE-2 production by at least 50.

Usually inhibition stands for the relative decrease from the control value, in per cent.

Regarding `CCOc1ccc(C=O)cc1` [4-EB, 4-ethoxybenzaldehyde, reference compound], in the experiment on PGE-2 [1], the inhibition at 1 µM stood at 10%, the inhibition at 10 µM turned out to be 6% and the inhibition at 50 µM worked out at 100%.

With `CC(C)(C)c1cc(C=O)cc(C(C)(C)C)c1O` [DTHB, 3,5 di-tert-butyl-4-hydroxybenzaldehyde], in the experiment with PGE-2 [1], the inhibition at 1 µM came to 3.3%, the inhibition at 10 µM was 44.4% and the inhibition at 50 µM was found to be 100%. Further, the inhibition at 10 µM in the experiment with PGE-2 [2] (Keratinocyte, compound 10 μM, read-out: percent inhibition of TPA-induced PGE-2) was 87.9%. In addition, in the experiment with PGE-2 [2] (DTHB 10, 50, or 100 μM), the “blocked PGE-2 production” value was “at least 50”.
